# Biological target: Multidrug resistance-associated protein 1 (Homo sapiens, UniProt P33527)
# Test: TP_TRANSPORTER: drug resistance in MRP1-expressing NIH/3T3 cells
# Type: functional, cell-based
# Conditions: mouse, nih3t3
# Chain of Multidrug resistance-associated protein 1 (P33527 whole entry): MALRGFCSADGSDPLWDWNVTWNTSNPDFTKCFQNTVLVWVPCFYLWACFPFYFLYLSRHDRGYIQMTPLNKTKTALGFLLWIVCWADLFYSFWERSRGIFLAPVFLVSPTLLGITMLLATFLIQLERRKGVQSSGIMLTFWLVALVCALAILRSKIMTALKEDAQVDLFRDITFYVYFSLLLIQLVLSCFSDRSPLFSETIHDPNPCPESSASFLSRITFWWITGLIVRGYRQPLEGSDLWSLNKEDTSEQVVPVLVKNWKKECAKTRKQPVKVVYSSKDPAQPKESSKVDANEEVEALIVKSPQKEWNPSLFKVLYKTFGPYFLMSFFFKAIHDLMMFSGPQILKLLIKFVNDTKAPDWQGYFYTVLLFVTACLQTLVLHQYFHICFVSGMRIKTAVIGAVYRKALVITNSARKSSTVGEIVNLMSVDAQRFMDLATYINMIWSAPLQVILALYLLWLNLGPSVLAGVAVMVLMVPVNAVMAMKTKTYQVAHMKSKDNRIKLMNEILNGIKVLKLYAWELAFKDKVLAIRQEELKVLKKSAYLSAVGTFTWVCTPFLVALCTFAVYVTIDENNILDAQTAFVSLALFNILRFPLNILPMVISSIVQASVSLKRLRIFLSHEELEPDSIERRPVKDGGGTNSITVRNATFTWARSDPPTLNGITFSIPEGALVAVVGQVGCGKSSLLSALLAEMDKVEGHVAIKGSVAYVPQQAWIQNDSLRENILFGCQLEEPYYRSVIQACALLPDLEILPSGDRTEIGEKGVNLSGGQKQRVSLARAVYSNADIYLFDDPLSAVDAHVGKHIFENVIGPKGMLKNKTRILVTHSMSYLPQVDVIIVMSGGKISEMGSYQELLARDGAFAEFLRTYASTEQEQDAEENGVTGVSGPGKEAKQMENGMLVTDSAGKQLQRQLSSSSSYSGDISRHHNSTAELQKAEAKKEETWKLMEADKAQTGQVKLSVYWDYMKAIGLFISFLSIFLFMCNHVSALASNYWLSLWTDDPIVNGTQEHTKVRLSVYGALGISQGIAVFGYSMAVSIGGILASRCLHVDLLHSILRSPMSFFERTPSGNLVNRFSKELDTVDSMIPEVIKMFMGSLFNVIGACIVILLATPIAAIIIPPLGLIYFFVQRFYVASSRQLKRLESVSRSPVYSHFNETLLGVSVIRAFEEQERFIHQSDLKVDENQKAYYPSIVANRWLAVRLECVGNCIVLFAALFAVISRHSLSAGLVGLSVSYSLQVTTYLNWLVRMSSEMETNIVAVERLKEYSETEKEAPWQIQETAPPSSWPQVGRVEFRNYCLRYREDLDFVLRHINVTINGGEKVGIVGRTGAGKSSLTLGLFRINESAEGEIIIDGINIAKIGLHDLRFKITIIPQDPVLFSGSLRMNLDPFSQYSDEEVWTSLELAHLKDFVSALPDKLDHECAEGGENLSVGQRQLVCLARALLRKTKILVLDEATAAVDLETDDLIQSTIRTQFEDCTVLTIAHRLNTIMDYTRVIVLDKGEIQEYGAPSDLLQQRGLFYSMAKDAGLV
row,SMILES,Activity
1,CC(C)OC(=O)Nc1cccc(Cl)c1 [CHLORPROPHAM],substrate []
2,COc1ccc(C(c2ccc(OC)cc2)C(Cl)(Cl)Cl)cc1 [METHOXYCHLOR],substrate []
3,COc1cccc2c1C(=O)c1c(O)c3c(c(O)c1C2=O)C[C@@](O)(C(=O)CO)C[C@@H]3O[C@H]1C[C@H](N)[C@H](O)[C@H](C)O1 [DOXORUBICIN],substrate []
4,COP(=S)(OC)Oc1ccc([N+](=O)[O-])c(C)c1 [FENITROTHION],substrate []

# Reference: ChEMBL document CHEMBL2073994, “The multidrug resistance-associated protein 1 transports methoxychlor and protects the seminiferous epithelium from injury” (Toxicol Lett, 2003)
